≈ marks a conversion by molar mass, not a printed value.
Columns and labels:
P. aeruginosa PAO1 [1] = assay: Outer membrane permeabilization assay (NPN uptake); type: cell-based, Pseudomonas aeruginosa
Description: Outer Membrane Permeabilization Assay. […] Briefly, an overnight grown P. aeruginosa PAO1 culture was subcultured (1 in 100) in fresh LB broth and grown to a mid-logarithmic phase (approximately 2 h, OD600=0.5-0.6). The cells were harvested by centrifuging for 10 min at 1000 g and room temperature, washed twice in PBS, and resuspended in half volume of PBS. This suspension was used in standard microtiter plate assay. […] PMBN, a known outer membrane permeabilizer, served as a positive control while cells +NPN (without test compounds) served as a negative control. Four independent replicates were conducted, and the data were corrected for any background fluorescence.

[2] = tested on: P. aeruginosa PAO1 and efflux deficient mutants, MDR/XDR isolates; assay: microbe, parasite or virus in culture; type: cell-based, Pseudomonas aeruginosa
Description: Antimicrobial Susceptibility Assay. The in vitro antimicrobial activity of all compounds/antibiotics against a panel of bacteria was evaluated by microbroth dilution method in accordance with the Clinical and Laboratory Standards Institute (CLSI) guidelines (using ATCC strains as quality control strains) (54). […] The broth with or without bacterial cells was used as positive or negative control, respectively.

A. baumannii ATCC 17978 = assay: Time-kill assay; type: cell-based, Acinetobacter baumannii; settings: novobiocin 32 μg/ml, after 24 h
Description: (§1) Time-kill Assay. […] At specific time intervals (0, 1, 3, 6, 9, and 24 h), 100 μl was taken from each sample, serially diluted in sterile PBS, plated on LB agar plates, and incubated at 37° C. in a humid 5% CO2-enriched atmosphere. Bacterial colonies were counted after 20 h of incubation.

P. aeruginosa PAO1 [3] = assay: Time-kill assay; type: cell-based, Pseudomonas aeruginosa; settings: LB media, novobiocin 32 μg/ml, compound 1 7.1 μM, 24 h
Description: as §1

[4] = tested on: A. baumannii ATCC 17978 and resistant mutants; assay: microbe, parasite or virus in culture; type: cell-based, Acinetobacter baumannii; settings: Acinetobacter baumannii
K. pneumoniae 116381 = assay: Time-kill assay; type: cell-based, Klebsiella pneumoniae; settings: LB media, novobiocin 32 μg/ml, compound 1 7.1 μM, 24 h
Description: as §1

| Structure (SMILES) | outer membrane permeabilization (NPN fluorescence) (P. aeruginosa PAO1 [1]) | NPN fluorescence relative to PMBN (8 μg/ml) (P. aeruginosa PAO1 [1]; compound 1 at 16 μg/ml) | MIC of Compound 1 ([2]; PAO1 (wild-type)) | MIC of Compound 1 ([2]; PAO200 (efflux-deficient)) | MIC of Compound 1 ([2]; PAO750 (efflux-deficient)) | time-kill outcome (A. baumannii ATCC 17978) | time-kill outcome (P. aeruginosa PAO1 [3]) | MIC ([4]; ATCC17978, 18 h, Mutant C (seven serial passages, sub-MICs novobiocin + 7.1 μM compound 1)) | MIC ([4]; ATCC17978, Mutant A (seven serial passages, sub-MICs novobiocin)) | MIC ([4]; ATCC17978, Mutant B (seven serial passages, sub-MICs colistin)) | time-kill outcome (K. pneumoniae 116381) |
| --- | --- | --- | --- | --- | --- | --- | --- | --- | --- | --- | --- |
| NC[C@H]1O[C@H](O[C@H]2[C@H](OCCCCc3cn(CCCCO[C@@H]4[C@@H](O[C@H]5O[C@H](CO)[C@@H](O)[C@H](N)[C@H]5O)[C@H](N)C[C@H](N)[C@H]4O[C@H]4O[C@H](CN)[C@@H](O)C[C@H]4N)nn3)[C@@H](O[C@H]3O[C@H](CO)[C@@H](O)[C@H](N)[C@H]3O)[C@H](N)C[C@@H]2N)[C@H](N)C[C@@H]1O.O=C(O)C(F)(F)F.O=C(O)C(F)(F)F.O=C(O)C(F)(F)F.O=C(O)C(F)(F)F.O=C(O)C(F)(F)F.O=C(O)C(F)(F)F.O=C(O)C(F)(F)F.O=C(O)C(F)(F)F.O=C(O)C(F)(F)F.O=C(O)C(F)(F)F [Compound 1, Tobramycin Homodimer 1] | dose-dependent | increased fluorescence | >128 µg/mL | >128 µg/mL | >128 µg/mL | – | – | – | – | – | – |
| CO[C@@H]1[C@@H](OC(N)=O)[C@@H](O)[C@H](Oc2ccc3c(O)c(NC(=O)c4ccc(O)c(CC=C(C)C)c4)c(=O)oc3c2C)OC1(C)C [Novobiocin] | – | – | – | – | – | bacteriostatic | bacterial growth identical to their respective controls | 128 µg/mL | 2050 µg/mL (≈ 3.34 mM) | < 0.031 µg/mL | bacterial growth identical to their respective controls |

From patent US20220249441A1, “Homodimeric Tobramycin Adjuvant Repurposes Novobiocin as an Effective Antibacterial Agent Against Gram-Negative Bacteria” (priority 2019, published 2022)
